Where “and” joins values, the source holds several entries; their conditions need not be identical. Equal entries are not always repeated.
molecular target: Nonstructural protein 3 (Zika virus, UniProt A0A024AXB9); assay: Functional biochemical assay to identify treatments for viral infectious disease that targets Zika NS2B-NS3 protease. Utilizing a direct enzyme activity measurement method, reading the fluorescence intensity is used to characterize the relative potency of inhibitors as IC50.; design: species or system PRVABC59
Sequence (A0A024AXB9 whole entry): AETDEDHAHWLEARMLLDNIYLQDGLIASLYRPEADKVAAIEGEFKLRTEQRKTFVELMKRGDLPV

IC50, 58.2 µM:
NC[C@H]1CC[C@@H](CNC(=O)[C@@H](NC(=O)OCc2ccccc2)c2ccc(OCc3ccccc3)cc2)CC1

IC50, 16.3 µM and 13.9 µM:
NCCc1ccc(CNC(=O)[C@@H](NC(=O)OCc2ccccc2)c2ccc(OCc3ccccc3)cc2)cc1

IC50, 61.4 µM:
NCc1ccc2c(c1)CCC[C@H]2NCc1cc(Cl)cc2c1OCC2

IC50, 79.2 µM:
NCc1cccc(NC(=O)[C@@H](NC(=O)OCc2ccccc2)c2ccc(C(F)(F)F)cc2)c1

IC50, 67 µM:
O=C(O)c1cc(Cl)cc(F)c1NS(=O)(=O)c1ccc(Oc2ccccc2Cl)cc1

IC50, > 99.5 µM:
CCn1nc(C)c(CN(C)Cc2ccc3c(c2)CCNCC3)c1C
CC[C@@H](C)c1nc(C)cc(N2CCC(n3ncc(N)c3C(F)(F)F)CC2)n1
CCc1cc(F)ccc1CC(=O)N1CCCc2cc(CCN)ccc21
Cn1cc(C(=O)N[C@@H](C(=O)Nc2cccc(CN)c2)c2ccc(OCc3ccccc3)cc2)cn1
Cc1ccc(F)c2c1CCN(Cc1ccn(C3CNC3)c1)C2
COc1ccc(CNC(=O)[C@@H](NC(=O)OCc2ccccc2)c2ccc(OCc3ccccc3)cc2)cn1
O=C(N[C@@H](C(=O)NCc1cn[nH]c1)c1ccc(OCc2ccccc2)cc1)OCc1ccccc1
Cc1cccnc1COc1ccc(S(=O)(=O)Nc2ccc(Cl)cc2C(=O)O)cc1
O=C(N[C@@H](C(=O)NCc1cnccn1)c1ccc(OCc2ccccc2)cc1)OCc1ccccc1
Cn1c(COc2ccc(S(=O)(=O)Nc3ccc(Cl)cc3C(=O)O)cc2)nnc1C1CC1
N[C@H]1CC[C@H](NC(=O)[C@@H](NC(=O)OCc2ccccc2)c2ccc(OCc3ccccc3)cc2)CC1
Cn1c(C(=O)N2CCCc3ccc(C(F)F)cc32)cc2c1CCNC2
NCCCc1ccc(C(=O)N2CC(c3cccc(Br)c3)C2)cc1
N[C@H]1CC[C@H](CNC(=O)[C@@H](NC(=O)OCc2ccccc2)c2ccc(OCc3ccccc3)cc2)CC1
Cc1ccc(CNC(=O)[C@@H](NC(=O)OCc2ccccc2)c2ccc(OCc3ccccc3)cc2)cn1
CN(C(=O)c1ccc2c(c1)[C@H](CN)CCC2)C1CCN(CC(F)F)CC1
NCc1cccc(NC(=O)[C@@H](NC(=O)c2cccnc2)c2ccc(OCc3ccccc3)cc2)c1
Cc1n[nH]c2cc(C(=O)N3CCC(C)(NC(=O)[C@H]4C[C@H](N(C)C)C4)CC3)ccc12
NCc1ccccc1C1CCN(C(=O)[C@@]23CNC[C@]2(C(F)(F)F)C3)CC1
O=C(N[C@H](C(=O)NCc1ccccc1CO)c1ccc(OCc2ccccc2)cc1)OCc1ccccc1
NCc1cccc(NC(=O)[C@H]2c3ccc(Br)cc3OCCN2C(=O)OCc2ccccc2)c1
CS(=O)(=O)NCc1cccc(CNC(=O)[C@@H](NC(=O)OCc2ccccc2)c2ccc(OCc3ccccc3)cc2)c1
C[C@@H](O)c1cccc(N2CCC(c3nc(N)ncc3F)CC2)n1
O=C(O)c1cc(Cl)ccc1NS(=O)(=O)c1ccc(OCc2cccnc2)cc1
O=C(N[C@H](C(=O)NCc1cccc(CO)n1)c1ccc(OCc2ccccc2)cc1)OCc1ccccc1
O=C(N[C@H](C(=O)NCc1cccc(CO)c1)c1ccc(OCc2ccccc2)cc1)OCc1ccccc1
C[C@@H](NC(=O)C1CCN(c2cccc(C(N)=O)n2)CC1)[C@H]1CCCNC1
C[C@@H](NC(=O)c1cc(Cl)ccc1NS(=O)(=O)c1ccc(Oc2ccccc2Cl)cc1)C(=O)O
Cc1cc(CNC(=O)[C@@H](NC(=O)OCc2ccccc2)c2ccc(OCc3ccccc3)cc2)cc(C)n1
CCN(CC(=O)NC)C(=O)c1cc(Cl)ccc1NS(=O)(=O)c1ccc(Oc2ccccc2Cl)cc1
CCc1ccc([C@@H](NC(=O)OCc2ccccc2)C(=O)Nc2cccc(CN)c2)cc1
Nc1ccc(CNC(=O)[C@@H](NC(=O)OCc2ccccc2)c2ccc(OCc3ccccc3)cc2)nc1

From ChEMBL document CHEMBL5604062, “ASAP - ZIKV NS2B-NS3 protease fluorescence dose response” (2024)
